From patent publication US20260365670A1, “EGFR INHIBITORS AND USES THEREOF” (DIZAL (JIANGSU) PHARMACEUTICAL CO., LTD., priority 2022, published 2026) come the findings set out here.

One experiment deals with T1, EGFR L858R (Homo sapiens, UniProt P00533, L858R).
T1 construct: purchased Carna Bio
Kind of experiment: Inhibition of EGFR L858R biochemical enzymatic activity (HTRF). Conditions: 1 mM ATP. The method, boiled down: (§1)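 Using a high ATP level (1 mM), wild-type and mutant EGFR enzymes were incubated 1 h at room temperature with inhibitor and 1 μM biotinylated TK substrate. Phosphorylation was quantified as the 665/615 nm HTRF ratio. IC50s were derived by logistic fitting.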

Experiment [1] deals with T2, EGFR[T790M/C797S/d746-750] (Homo sapiens, UniProt P00533, C797S/DEL746-750/T790M).
T2 construct: purchased Carna Bio
In words: Inhibition of EGFR[T790M/C797S/d746-750] biochemical enzymatic activity (HTRF). The method in brief: as §1
For orientation: In TR-FRET formats the signal depends on donor and acceptor labels being close together.

The next experiment concerns the target T3, EGFR Exon19Del (Homo sapiens, UniProt P00533, DEL746-750).
T3 construct: purchased Carna Bio
In words: Inhibition of EGFR Exon19Del biochemical enzymatic activity (HTRF). To be noted: read-out: IC50 @Del19. The method, boiled down: as §1

The test system of experiment [2] is Ba/F3 cells expressing EGFR mutations. In words: Cell proliferation assay, Ba/F3 cells expressing EGFR mutations (CellTiter-Glo, 72 hours). The format is cell-based. The method in brief:
(§2)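 Cells are exposed to graded compound concentrations after overnight plating, using 500 PC-9 or 5000 Ba/F3 per well. Baseline-subtracted viability is compared with vehicle to give percent proliferation, then GI50.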

The target in the next experiment is T4, EGFR[T790M/C797S/L858R] (Homo sapiens, UniProt P00533, C797S/L858R/T790M).
T4 construct: purchased Carna Bio
In words: Inhibition of EGFR[T790M/C797S/L858R] biochemical enzymatic activity (HTRF). To be noted: 1 mM ATP. The method in brief: as §1

Another experiment deals with T5, EGFR (d746-750 C797S) (Homo sapiens, UniProt P00533, C797S/DEL746-750).
T5 construct: purchased signalchem
In words: Inhibition of EGFR (d746-750 C797S) biochemical enzymatic activity (HTRF). Conditions: 1 mM ATP. The method in brief:
as §1

The next experiment has as its system PC-9. Kind of experiment: Cell proliferation assay, PC-9 cells (CellTiter-Glo, 72 hours). It counts as cell-based. Conditions: PC9 cells. The method, boiled down: as §2
For orientation: ATP-based viability assays read luminescence as a measure of living cells.

For a further experiment, the target named is T6, EGFR Exon19Del/T790M (Homo sapiens, UniProt P00533, DEL746-750/T790M).
T6 construct: purchased Carna Bio
Kind of experiment: Inhibition of EGFR Exon19Del/T790M biochemical enzymatic activity (HTRF). Conditions: 1 mM ATP. The method in brief: as §1

The next experiment has as its target T7, EGFR L858R/T790M (Homo sapiens, UniProt P00533, L858R/T790M).
T7 construct: purchased Carna Bio
Kind of experiment: Inhibition of EGFR L858R/T790M biochemical enzymatic activity (HTRF). Conditions: 1 mM ATP. The method in brief: as §1

For the next experiment, the target named is T8, EGFR (C797S L858R) (Homo sapiens, UniProt P00533, C797S/L858R).
T8 construct: purchased signalchem
In words: Inhibition of EGFR (C797S L858R) biochemical enzymatic activity (HTRF). Conditions: 1 mM ATP. The method in brief:
as §1

In a further experiment the target is T9, EGFR wild type (Homo sapiens, UniProt P00533).
T9 construct: purchased Carna Bio
Kind of experiment: Inhibition of EGFR wild type biochemical enzymatic activity (HTRF). Conditions: 1 mM ATP. The method in brief: as §1

[3] abbreviates: 1 h, room temperature, read-out: IC50 (nM) @L858R.
Setting [4] is: EGFR T790M-C797S-Del19, 1 mM ATP, 1 h, room temperature, read-out: IC50 (nM) @T790M - C797S - Del19.
Setting [5] is: EGFR Del19, 1 mM ATP, 1 h, room temperature.
The mark [6] stands for this setting: BaF3 cells, EGFR DEL19-C797S, CellTiter-Glo, read-out: DEL19-C797S/BaF3 GI50.
Setting [7] is: BaF3 cells, EGFR DEL19-T790-C797S, CellTiter-Glo, read-out: DEL19-T790-C797S/BaF3 GI50.
Where [8] appears, read: BaF3 cells, EGFR L858R, CellTiter-Glo, read-out: L858R/BaF3 GI50.
[9] abbreviates: BaF3 cells, EGFR L858R-C797S, CellTiter-Glo, read-out: L858R-C797S/BaF3 GI50.
Setting [10] is: BaF3 cells, EGFR L858R-T790-C797S, CellTiter-Glo, read-out: L858R-T790-C797S/BaF3 GI50.
[11] abbreviates: BaF3 cells, EGFR L858R-T790M, CellTiter-Glo, read-out: L858R-T790M/BaF3 GI50.
Where [12] appears, read: EGFR DEL19-T790M, CellTiter-Glo, read-out: DEL19-T790M GI50.
Setting [13] is: EGFR T790M-C797S-L858R, 1 h, room temperature, read-out: IC50 (nM) @T790M- C797S - L858R.
Setting [14] is: EGFR Del19-C797S, 1 h, room temperature, read-out: IC50 (nM) @Del19-C797S.
The mark [15] stands for this setting: CellTiter-Glo, read-out: PC9 GI50.
Setting [16] is: EGFR Del19-T790M, 1 h, room temperature, read-out: IC50 (nM) @Del19-T790M.
Setting [17] is: EGFR L858R-T790M, 1 h, room temperature, read-out: IC50 (nM) @L858R-T790M.
The mark [18] stands for this setting: EGFR L858-C797S, 1 h, room temperature, read-out: IC50 (nM) @L858-C797S.
The mark [19] stands for this setting: EGFR WT, 1 h, room temperature, read-out: IC50 (nM) @WT.

Read-outs that look alike come from different tables or passages of the source. Some results are limits rather than exact numbers.

The term IC50 denotes the midpoint of a concentration-inhibition curve.

T6 sequence (P00533 with tags, fused parts or gaps DEL746-750/T790M limits assumed): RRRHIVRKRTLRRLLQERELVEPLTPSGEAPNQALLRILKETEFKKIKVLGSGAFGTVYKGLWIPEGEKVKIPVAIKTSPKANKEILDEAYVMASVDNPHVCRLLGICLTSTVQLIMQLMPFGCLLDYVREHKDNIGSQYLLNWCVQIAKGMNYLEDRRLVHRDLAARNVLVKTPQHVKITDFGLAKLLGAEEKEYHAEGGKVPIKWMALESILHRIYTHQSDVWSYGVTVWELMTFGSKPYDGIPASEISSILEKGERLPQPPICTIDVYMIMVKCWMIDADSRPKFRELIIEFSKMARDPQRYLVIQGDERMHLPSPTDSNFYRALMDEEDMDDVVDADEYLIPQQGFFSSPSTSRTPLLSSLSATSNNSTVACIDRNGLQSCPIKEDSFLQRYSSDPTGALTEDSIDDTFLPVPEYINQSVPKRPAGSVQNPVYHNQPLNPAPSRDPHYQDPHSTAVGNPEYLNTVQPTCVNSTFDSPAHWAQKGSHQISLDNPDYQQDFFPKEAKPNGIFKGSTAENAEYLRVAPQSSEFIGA
T3 sequence (P00533 with tags, fused parts or gaps DEL746-750 limits assumed): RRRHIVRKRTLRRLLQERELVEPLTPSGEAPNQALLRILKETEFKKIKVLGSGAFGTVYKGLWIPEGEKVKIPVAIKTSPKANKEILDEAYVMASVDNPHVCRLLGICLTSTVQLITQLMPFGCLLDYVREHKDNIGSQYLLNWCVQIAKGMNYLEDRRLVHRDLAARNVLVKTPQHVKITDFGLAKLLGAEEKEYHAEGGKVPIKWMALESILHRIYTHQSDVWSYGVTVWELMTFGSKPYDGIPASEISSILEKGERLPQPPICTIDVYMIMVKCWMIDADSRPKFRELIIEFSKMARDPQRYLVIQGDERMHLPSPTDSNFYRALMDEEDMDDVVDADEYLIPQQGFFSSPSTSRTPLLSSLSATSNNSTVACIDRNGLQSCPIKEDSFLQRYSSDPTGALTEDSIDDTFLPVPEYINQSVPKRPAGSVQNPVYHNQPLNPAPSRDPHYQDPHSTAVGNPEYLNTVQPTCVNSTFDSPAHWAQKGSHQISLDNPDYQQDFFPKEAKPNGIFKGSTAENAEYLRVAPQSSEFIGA
T2 sequence (P00533 with tags, fused parts or gaps DEL746-750/T790M/C797S limits assumed): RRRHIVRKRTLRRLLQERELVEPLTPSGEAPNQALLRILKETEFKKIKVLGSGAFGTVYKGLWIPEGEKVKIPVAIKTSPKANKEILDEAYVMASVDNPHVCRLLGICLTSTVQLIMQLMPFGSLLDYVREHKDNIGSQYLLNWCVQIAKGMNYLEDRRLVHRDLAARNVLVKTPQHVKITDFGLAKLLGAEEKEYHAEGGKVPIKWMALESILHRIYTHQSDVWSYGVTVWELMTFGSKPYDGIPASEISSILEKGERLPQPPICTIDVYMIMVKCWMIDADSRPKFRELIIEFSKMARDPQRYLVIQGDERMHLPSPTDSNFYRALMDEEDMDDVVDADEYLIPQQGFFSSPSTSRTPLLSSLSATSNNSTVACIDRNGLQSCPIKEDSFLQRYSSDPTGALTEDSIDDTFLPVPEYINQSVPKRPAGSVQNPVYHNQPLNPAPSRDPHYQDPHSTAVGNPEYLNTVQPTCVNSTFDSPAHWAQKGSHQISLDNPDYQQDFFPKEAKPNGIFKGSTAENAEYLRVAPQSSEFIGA
T5 sequence (P00533 with tags, fused parts or gaps DEL746-750/C797S limits assumed): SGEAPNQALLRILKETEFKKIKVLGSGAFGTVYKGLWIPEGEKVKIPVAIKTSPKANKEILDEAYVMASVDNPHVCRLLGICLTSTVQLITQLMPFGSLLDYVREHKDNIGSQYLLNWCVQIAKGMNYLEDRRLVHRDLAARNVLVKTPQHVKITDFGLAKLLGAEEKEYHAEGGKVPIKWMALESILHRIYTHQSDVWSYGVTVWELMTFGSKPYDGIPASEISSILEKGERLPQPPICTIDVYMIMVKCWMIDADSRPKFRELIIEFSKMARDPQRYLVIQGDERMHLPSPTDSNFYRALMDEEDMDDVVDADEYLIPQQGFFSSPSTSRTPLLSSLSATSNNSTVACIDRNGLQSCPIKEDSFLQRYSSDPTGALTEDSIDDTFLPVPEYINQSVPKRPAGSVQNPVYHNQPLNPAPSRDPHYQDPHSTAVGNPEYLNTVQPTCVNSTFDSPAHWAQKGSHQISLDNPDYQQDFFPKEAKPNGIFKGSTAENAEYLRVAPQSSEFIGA
T1 sequence (P00533 25-1210 L858R): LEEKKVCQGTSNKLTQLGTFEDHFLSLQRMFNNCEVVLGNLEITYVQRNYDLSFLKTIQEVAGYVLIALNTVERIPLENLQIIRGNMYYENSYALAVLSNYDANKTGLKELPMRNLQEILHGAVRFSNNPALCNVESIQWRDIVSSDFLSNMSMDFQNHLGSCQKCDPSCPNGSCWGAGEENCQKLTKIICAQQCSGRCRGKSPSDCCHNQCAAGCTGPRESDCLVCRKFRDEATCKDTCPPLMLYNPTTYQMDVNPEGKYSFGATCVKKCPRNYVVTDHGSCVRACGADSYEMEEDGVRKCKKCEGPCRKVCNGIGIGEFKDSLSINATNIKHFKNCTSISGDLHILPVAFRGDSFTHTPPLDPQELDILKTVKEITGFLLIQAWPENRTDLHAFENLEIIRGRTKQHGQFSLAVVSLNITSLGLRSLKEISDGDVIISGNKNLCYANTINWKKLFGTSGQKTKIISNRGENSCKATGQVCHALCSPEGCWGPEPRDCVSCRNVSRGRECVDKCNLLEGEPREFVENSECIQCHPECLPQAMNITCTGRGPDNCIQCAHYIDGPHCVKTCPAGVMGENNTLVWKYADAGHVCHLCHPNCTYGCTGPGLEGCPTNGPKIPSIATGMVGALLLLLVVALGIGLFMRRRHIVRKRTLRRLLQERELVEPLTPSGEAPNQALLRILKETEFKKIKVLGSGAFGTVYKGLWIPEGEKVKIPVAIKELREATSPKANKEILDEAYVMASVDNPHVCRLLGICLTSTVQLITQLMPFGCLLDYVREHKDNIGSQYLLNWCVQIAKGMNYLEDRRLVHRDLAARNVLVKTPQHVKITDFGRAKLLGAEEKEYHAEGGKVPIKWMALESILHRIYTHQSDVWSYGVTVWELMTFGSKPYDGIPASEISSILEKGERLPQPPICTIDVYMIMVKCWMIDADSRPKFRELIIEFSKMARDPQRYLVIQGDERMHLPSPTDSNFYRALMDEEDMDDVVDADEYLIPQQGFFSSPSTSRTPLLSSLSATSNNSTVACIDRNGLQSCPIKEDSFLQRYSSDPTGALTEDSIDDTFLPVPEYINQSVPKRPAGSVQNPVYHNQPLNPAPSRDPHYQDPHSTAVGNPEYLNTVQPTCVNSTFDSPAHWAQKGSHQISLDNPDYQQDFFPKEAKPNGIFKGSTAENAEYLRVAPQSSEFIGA
T7 sequence (P00533 25-1210 T790M/L858R): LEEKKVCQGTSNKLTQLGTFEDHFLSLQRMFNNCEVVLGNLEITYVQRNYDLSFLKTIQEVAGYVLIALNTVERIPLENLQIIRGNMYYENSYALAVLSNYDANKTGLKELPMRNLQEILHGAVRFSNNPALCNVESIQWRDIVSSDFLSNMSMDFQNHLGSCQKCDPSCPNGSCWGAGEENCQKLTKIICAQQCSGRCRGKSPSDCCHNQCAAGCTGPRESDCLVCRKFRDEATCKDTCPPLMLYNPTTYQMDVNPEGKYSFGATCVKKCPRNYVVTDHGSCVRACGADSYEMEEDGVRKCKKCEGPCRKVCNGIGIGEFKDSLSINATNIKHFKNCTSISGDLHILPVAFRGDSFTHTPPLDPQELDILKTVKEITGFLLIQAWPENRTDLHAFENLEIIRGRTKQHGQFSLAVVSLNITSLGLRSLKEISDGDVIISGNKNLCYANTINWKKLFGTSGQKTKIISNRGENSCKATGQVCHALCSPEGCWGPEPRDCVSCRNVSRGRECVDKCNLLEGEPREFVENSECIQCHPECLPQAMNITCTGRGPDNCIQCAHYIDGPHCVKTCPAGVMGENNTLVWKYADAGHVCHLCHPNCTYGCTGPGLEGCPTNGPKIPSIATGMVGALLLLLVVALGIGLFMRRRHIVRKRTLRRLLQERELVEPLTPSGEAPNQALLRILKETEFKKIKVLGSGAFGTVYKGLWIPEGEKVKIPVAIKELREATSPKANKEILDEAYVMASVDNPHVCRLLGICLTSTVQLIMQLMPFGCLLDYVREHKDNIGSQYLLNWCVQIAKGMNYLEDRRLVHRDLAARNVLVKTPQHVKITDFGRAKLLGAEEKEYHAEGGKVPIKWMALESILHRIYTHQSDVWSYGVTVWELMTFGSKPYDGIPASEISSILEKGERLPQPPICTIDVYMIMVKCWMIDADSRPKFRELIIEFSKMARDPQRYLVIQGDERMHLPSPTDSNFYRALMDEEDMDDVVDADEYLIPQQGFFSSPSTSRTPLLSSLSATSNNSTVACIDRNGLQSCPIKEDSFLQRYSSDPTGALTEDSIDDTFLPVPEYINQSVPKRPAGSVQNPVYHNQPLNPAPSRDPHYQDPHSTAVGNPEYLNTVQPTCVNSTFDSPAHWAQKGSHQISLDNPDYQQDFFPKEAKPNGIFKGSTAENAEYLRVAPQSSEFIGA

Regarding `CN(C)C1CN(c2ccc3nc4n(c3c2)C23CCC(CN(CCOc5c(cnn5C)-c5cc(cn(C)c5=O)C(=O)N4)C2)C3)CC1F` (single isomer, unassigned) [Example A84B, 15,21-Dimethyl-5-[4-fluoro-3-(N,N-dimethylamino)pyrrolidinyl]-23-oxa-2,9,11,15,20,21,26-heptaazaheptacyclo[24.4.1.1^{1,28}.1^{13,17}.0^{2,10}.0^{3,8}.0^{18,22}]tritriaconta-3,5,7,9,13,17(33),18(22),19-octaene-12,16-dione], the concentration for half-maximal inhibition (IC50) on EGFR L858R (setting [3]) was 1310 nM; in experiment [1] (setting [4]) it was more than 5000 nM; on EGFR Exon19Del (setting [5]), 451 nM; at EGFR[T790M/C797S/L858R] (setting [13]), more than 5000 nM; at EGFR (d746-750 C797S) (setting [14]), 400 nM; on EGFR Exon19Del/T790M (setting [16]) it was more than 5000 nM. For the same compound, the IC50 is more than 5000 nM on EGFR L858R/T790M (setting [17]), 1140 nM at EGFR (C797S L858R) (setting [18]) and more than 5000 nM at EGFR wild type (setting [19]). Moreover, the GI50 in [2] (setting [6]) came to 157 nM; in experiment [2] (setting [7]) it was 516 nM; in [2] (setting [8]), 480 nM; in [2] (setting [9]), 302 nM; in experiment [2] (setting [10]), 1040 nM; in [2] (setting [11]) it was 997 nM. Further, the values for the GI50 (in experiment [2] (setting [12]); with PC-9 (setting [15])) were 545 nM and 768 nM, respectively.

As for `CN1CCN(C2CCN(c3ccc4nc5n(c4c3)C34CCC(CN(CCOc6c(cnn6C)-c6cc(cn(C)c6=O)C(=O)N5)C3)C4)C2)CC1` (single isomer, unassigned) [Example A80A2, 15,21-Dimethyl-5-[3-(4-methylpiperazin-1-yl)pyrrolidin-1-yl]-23-oxa-2,9,11,15,20,21,26-heptaazaheptacyclo[24.4.1.1^{1,28}.1^{13,17}.0^{2,10}.0^{3,8}.0^{18,22}]tritriaconta-3,5,7,9,13,17(33),18(22),19-octaene-12,16-dione], the IC50 on EGFR L858R (setting [3]) was more than 5000 nM; in [1] (setting [4]), 2190 nM; at EGFR Exon19Del (setting [5]) it was 490 nM; at EGFR[T790M/C797S/L858R] (setting [13]), more than 5000 nM; at EGFR (d746-750 C797S) (setting [14]), 530 nM; at EGFR Exon19Del/T790M (setting [16]), more than 5000 nM. Also, the IC50 on EGFR L858R/T790M (setting [17]), on EGFR (C797S L858R) (setting [18]) and at EGFR wild type (setting [19]) was more than 5000 nM in each case. In addition, the GI50 in experiment [2] (setting [6]) was 57 nM; in [2] (setting [7]), 170 nM; in [2] (setting [8]), 100 nM; in [2] (setting [9]), 125 nM; in [2] (setting [10]), 126 nM; in experiment [2] (setting [11]) it was 315 nM. Also, the GI50 in [2] (setting [12]) turned out to be 136 nM; in the experiment with PC-9 (setting [15]) it was 381 nM.

On to `Cc1cc2cc(n1)-c1cnn(C)c1OCCN1CC3CCC(C3)(C1)n1c(nc3ccc(N4CCC(N5CCN(C)CC5)C4)cc31)NC2=O` (single isomer, unassigned) [Example B49B], for which the IC50 at EGFR L858R (1 h at room temperature, read-out: IC50 @L858R) is 17 nM; in experiment [1] (EGFR[T790M/C797S/d746-750], 1 mM ATP, 1 h at room temperature, read-out: IC50 @T790M - C797S - Del19) it was 3.5 nM; at EGFR Exon19Del (EGFR Exon19Del, 1 mM ATP, 1 h at room temperature) it was 8 nM; on EGFR[T790M/C797S/L858R] (EGFR[T790M/C797S/L858R], 1 h at room temperature, read-out: IC50 @T790M- C797S - L858R), 2.4 nM; at EGFR (d746-750 C797S) (EGFR (d746-750 C797S), 1 h at room temperature, read-out: IC50 @Del19-C797S), 3.8 nM; on EGFR Exon19Del/T790M (EGFR Exon19Del/T790M, 1 h at room temperature, read-out: IC50 @Del19-T790M) it was 5.8 nM. For the same compound, the IC50 stood at 5.6 nM at EGFR L858R/T790M (EGFR L858R/T790M, 1 h at room temperature, read-out: IC50 @L858R-T790M); 8 nM at EGFR (C797S L858R) (EGFR (C797S L858R), 1 h at room temperature, read-out: IC50 @L858-C797S); 76 nM on EGFR wild type (EGFR wild type, 1 h at room temperature, read-out: IC50 @WT). In addition, the GI50 in experiment [2] (BaF3 cells, EGFR DEL19 - C797S, read-out: GI50 DEL19 - C797S/BaF3) stood at 2 nM; in experiment [2] (BaF3 cells, EGFR DEL19 - T790-C797S, read-out: GI50 DEL19 - T790-C797S/BaF3), 2 nM; in [2] (BaF3 cells, EGFR L858R - C797S, read-out: GI50 L858R - C797S/BaF3), 3 nM; in [2] (BaF3 cells, EGFR L858R - T790-C797S, read-out: GI50 L858R - T790-C797S/BaF3), 2 nM; in experiment [2] (BaF3 cells, EGFR L858R - T790M, read-out: GI50 L858R - T790M/BaF3), 2 nM; in experiment [2] (BaF3 cells, EGFR L858R, read-out: GI50 L858R/BaF3), 2 nM. Moreover, the GI50 amounted to 2 nM in experiment [2] (EGFR DEL19 - T790M, read-out: GI50 DEL19 - T790M) and 6 nM with PC-9 (read-out: GI50 PC9).

Regarding `CN1CC2CC1CN2c1ccc2nc3n(c2c1)C12CCC(CN(CCOc4c(cnn4C)-c4cc(cn(C)c4=O)C(=O)N3)C1)C2` (single isomer, unassigned) [Example A105A], the IC50 at EGFR L858R (setting [3]) was 2600 nM; in experiment [1] (setting [4]) it was 4190 nM; on EGFR Exon19Del (setting [5]), 381 nM; on EGFR[T790M/C797S/L858R] (setting [13]), more than 5000 nM; at EGFR (d746-750 C797S) (setting [14]), 330 nM; at EGFR Exon19Del/T790M (setting [16]), more than 5000 nM. In addition, the values for the IC50 at EGFR L858R/T790M (setting [17]), at EGFR (C797S L858R) (setting [18]) and on EGFR wild type (setting [19]) were more than 5000 nM, 2770 nM and more than 5000 nM, respectively. Moreover, the GI50 was 100 nM in experiment [2] (setting [6]); 341 nM in experiment [2] (setting [7]); 617 nM in experiment [2] (setting [8]); 263 nM in [2] (setting [9]); 652 nM in experiment [2] (setting [10]); 246 nM in experiment [2] (setting [11]). For the same compound, the GI50 in experiment [2] (setting [12]) was 363 nM; with PC-9 (setting [15]), 683 nM.
